ChEMBL document CHEMBL1201862, “PubChem BioAssay data set” (2004)
The source made the active and inactive calls.

Assays:
[1] = luciferase reporter signal suppression in cells – H4 neuroglioma cells, luminescence, dose response (AID 1990); type: functional, cell-based
[2] = Luminescence Cell-Based Dose Response HTS to Identify Inhibitors of 5'UTR Stem-Loop Driven Prion Protein mRNA Translation in H4 Neuroglioblastoma Cells. [Related pubchem assays: 1827 (Project Summary), 1813 (Primary HTS)]; type: functional
[3] = alpha-synuclein stem-loop luciferase translation blockers – H4 neuroglioma cells, luminescence, confirmation (AID 1988); type: functional, cell-based
[4] = target: T1, Polyadenylate-binding protein 1 (Homo sapiens, UniProt P11940); test: MLLE binding blockers, Cy5 peptide tracer – biochemical, fluorescence polarization, Cy5-PAM2 peptide, secondary, miRNA deadenylation inhibitor project, dose response (AID 602260); type: functional; conditions: read-out: IC50_Mean
T1 sequence (P11940 whole entry, the tested form may be a part): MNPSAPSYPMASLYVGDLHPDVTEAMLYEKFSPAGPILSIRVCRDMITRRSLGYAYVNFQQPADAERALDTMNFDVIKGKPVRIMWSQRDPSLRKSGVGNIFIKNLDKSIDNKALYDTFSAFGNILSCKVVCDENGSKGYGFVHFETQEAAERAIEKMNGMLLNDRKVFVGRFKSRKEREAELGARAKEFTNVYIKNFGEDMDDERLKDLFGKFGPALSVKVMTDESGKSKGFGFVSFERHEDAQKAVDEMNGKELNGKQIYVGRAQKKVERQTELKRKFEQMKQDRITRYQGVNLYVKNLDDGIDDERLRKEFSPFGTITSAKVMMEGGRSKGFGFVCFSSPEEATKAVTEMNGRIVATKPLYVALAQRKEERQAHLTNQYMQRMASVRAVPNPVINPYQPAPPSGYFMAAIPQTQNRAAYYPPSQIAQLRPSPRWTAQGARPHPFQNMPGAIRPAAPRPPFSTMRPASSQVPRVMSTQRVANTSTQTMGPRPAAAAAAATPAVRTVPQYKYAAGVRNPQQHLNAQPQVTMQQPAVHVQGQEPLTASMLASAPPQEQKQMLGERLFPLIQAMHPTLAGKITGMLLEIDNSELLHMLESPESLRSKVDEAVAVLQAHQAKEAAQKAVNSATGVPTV

[5] = target: T1, Polyadenylate-binding protein 1; test: MLLE domain peptide-binding blockers, IC50 – biochemical, fluorescence polarization, FITC-PAM2 peptide, dose response (AID 602259); type: functional; conditions: read-out: IC50_Mean
[6] = target: T2, RNA-binding protein pos-1 (Caenorhabditis elegans, UniProt G5EF15); test: disruptors of C. elegans POS-1 RNA interaction – biochemical, fluorescence polarization, dose response (AID 1964);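 further: purified POS-1 fused to maltose binding protein made in E. coli; potency of compounds blocking POS-1 binding to fluorescent RNA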
T2 sequence (G5EF15 whole entry): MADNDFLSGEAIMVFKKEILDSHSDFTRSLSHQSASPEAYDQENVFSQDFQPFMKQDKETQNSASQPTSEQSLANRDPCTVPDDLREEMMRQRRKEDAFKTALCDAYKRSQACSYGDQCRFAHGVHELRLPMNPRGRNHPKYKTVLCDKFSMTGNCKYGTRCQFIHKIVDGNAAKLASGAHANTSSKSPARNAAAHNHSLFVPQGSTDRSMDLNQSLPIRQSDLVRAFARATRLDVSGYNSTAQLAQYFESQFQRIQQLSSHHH

[7] = target: T3, Zinc finger protein mex-5 (Caenorhabditis elegans, UniProt Q9XUB2); test: potency of MEX-5 RNA-binding blockers – biochemical, C. elegans, fluorescence polarization, dose response (AID 1960)
T3 sequence (Q9XUB2 whole entry): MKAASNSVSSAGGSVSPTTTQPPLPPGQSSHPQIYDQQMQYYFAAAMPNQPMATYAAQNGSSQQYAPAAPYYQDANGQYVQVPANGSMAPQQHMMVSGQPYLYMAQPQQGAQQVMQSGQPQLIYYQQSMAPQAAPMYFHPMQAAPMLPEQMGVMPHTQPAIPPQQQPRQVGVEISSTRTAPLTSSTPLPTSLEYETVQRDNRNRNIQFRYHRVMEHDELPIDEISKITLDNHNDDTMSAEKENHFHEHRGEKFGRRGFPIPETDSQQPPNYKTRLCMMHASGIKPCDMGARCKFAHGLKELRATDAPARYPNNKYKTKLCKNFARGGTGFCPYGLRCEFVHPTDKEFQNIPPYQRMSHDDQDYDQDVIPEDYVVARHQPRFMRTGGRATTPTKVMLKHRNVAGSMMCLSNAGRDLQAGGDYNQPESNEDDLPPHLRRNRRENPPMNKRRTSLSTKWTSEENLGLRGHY

Protein skinhead-1 = target: T4, Protein skinhead-1 (Caenorhabditis elegans, UniProt P34707); type: functional
T4 sequence (P34707 whole entry): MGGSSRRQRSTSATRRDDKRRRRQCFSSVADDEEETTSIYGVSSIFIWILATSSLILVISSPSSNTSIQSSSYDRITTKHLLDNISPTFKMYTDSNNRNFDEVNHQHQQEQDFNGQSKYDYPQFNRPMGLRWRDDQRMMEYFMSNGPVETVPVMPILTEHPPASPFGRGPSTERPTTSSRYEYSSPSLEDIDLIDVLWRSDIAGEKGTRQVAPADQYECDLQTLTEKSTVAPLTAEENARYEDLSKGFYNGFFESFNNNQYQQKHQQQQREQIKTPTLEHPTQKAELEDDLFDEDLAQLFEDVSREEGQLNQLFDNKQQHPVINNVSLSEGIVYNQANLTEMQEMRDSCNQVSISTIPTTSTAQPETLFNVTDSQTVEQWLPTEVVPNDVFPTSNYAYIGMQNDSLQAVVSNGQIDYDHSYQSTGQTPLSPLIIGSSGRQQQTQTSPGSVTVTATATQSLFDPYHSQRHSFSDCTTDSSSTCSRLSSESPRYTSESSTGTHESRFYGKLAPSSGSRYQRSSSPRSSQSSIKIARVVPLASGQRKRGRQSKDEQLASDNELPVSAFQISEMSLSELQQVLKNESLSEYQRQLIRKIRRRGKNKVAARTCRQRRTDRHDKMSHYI

[8] = Luminescence Cell-Based Dose Confirmation HTS to Identify Activators of 5'UTR Stem-Loop Driven Alpha-Synuclein mRNA Translation in H4 Neuroglioblastoma Cells. [Related pubchem assays: 1829 (Project Summary), 1814 (Primary HTS)]; type: functional
[9] = Luminescence Cell-Based Dose Response HTS to Identify Activators of Luciferase Translation or Activity in H4 […] Cells. [Related pubchem assays: 1829 (Project Summary), 1814 (Primary HTS)]; type: functional
H4 = test: Luminescence Cell-Based Dose Response HTS to Identify Activators of 5'UTR Stem-Loop Driven Prion Protein mRNA Translation in H4 Neuroglioblastoma Cells. [Related pubchem assays: 1829 (Project Summary), 1814 (Primary HTS)]; type: functional; conditions: Homo sapiens
Cytochrome P450 2D6 = Cytochrome P450 2D6 (Homo sapiens, UniProt P10635);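 further: CYP2D6 member of a cytochrome P450 panel assay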
Cytochrome P450 2D6, sequence (P10635 whole entry): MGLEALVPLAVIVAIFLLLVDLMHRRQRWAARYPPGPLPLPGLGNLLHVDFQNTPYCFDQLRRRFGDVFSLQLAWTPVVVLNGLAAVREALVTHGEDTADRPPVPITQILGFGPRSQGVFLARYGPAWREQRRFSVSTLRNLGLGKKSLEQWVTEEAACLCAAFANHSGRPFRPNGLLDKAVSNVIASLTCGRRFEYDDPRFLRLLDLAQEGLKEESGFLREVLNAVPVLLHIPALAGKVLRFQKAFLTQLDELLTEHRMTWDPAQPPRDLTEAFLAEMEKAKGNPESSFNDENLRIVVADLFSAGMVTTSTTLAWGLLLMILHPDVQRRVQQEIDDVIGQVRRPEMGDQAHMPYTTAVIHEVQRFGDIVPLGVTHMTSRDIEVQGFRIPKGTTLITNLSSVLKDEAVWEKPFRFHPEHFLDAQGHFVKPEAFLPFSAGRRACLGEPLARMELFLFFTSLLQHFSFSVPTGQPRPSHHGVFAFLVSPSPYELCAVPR

Cytochrome P450 3A4 = Cytochrome P450 3A4 (Homo sapiens, UniProt P08684);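 further: CYP3A4 tested as one member of a cytochrome P450 panel screen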
Cytochrome P450 3A4, sequence (P08684 whole entry): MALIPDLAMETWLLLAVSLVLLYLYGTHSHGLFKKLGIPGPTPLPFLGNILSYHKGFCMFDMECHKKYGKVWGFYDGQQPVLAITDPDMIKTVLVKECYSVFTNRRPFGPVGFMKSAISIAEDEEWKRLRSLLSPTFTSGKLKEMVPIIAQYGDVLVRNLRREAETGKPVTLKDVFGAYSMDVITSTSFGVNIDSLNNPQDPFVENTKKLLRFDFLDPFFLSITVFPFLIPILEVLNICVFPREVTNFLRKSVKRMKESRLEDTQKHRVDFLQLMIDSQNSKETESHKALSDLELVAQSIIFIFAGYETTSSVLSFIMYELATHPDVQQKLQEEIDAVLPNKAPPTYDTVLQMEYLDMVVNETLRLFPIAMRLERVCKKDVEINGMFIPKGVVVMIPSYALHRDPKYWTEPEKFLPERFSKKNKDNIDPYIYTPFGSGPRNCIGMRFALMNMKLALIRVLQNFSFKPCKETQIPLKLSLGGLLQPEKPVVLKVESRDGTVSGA

Cytochrome P450 1A2 = target: T5, Cytochrome P450 1A2 (Homo sapiens, UniProt P05177);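 further: PubChem cytochrome P450 panel assay, CYP1A2 panel member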
T5 sequence (P05177 whole entry): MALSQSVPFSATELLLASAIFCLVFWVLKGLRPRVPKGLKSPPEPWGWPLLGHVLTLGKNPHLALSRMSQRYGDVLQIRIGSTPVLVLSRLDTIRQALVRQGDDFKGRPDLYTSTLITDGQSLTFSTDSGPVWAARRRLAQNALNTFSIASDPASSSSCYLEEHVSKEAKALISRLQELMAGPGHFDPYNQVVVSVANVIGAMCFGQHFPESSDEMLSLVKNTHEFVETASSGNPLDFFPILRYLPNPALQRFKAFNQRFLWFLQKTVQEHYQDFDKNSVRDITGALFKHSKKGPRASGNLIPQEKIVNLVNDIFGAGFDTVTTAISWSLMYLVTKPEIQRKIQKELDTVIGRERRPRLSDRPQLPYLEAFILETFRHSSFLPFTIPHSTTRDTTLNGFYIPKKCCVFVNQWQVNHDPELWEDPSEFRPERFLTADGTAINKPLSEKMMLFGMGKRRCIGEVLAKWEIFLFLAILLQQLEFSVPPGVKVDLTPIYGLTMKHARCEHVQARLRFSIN

[10] = viability of uninfected HEp-2 cells – cell-based, HTS, cytotoxicity control for RSV inhibitor project, dose response (AID 2410); type: functional; conditions: human respiratory syncytial virus
Cytochrome P450 2C19 = Cytochrome P450 2C19 (Homo sapiens, UniProt P33261); test: Cytochrome panel assay with activity outcomes. Panel member name: p450-cyp2c19 Compounds with AC50 equal or less than 10 uM are considered active; type: functional; conditions: read-out: AC50
Cytochrome P450 2C19, sequence (P33261 whole entry): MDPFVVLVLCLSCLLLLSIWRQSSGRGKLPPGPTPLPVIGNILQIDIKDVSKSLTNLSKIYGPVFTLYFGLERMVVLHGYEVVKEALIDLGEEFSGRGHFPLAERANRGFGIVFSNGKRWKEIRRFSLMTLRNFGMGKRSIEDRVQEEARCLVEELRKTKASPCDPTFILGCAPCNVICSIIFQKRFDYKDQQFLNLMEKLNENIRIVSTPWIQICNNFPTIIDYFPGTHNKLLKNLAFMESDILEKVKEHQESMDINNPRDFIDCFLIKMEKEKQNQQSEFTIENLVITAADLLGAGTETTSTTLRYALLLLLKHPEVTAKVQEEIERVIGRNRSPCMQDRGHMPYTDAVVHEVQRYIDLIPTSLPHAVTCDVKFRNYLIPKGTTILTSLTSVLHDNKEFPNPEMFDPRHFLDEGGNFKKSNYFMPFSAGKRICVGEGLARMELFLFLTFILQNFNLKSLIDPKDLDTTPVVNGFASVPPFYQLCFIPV

Cytochrome P450 2C9 = Cytochrome P450 2C9 (Homo sapiens, UniProt P11712)
Cytochrome P450 2C9, sequence (P11712 whole entry): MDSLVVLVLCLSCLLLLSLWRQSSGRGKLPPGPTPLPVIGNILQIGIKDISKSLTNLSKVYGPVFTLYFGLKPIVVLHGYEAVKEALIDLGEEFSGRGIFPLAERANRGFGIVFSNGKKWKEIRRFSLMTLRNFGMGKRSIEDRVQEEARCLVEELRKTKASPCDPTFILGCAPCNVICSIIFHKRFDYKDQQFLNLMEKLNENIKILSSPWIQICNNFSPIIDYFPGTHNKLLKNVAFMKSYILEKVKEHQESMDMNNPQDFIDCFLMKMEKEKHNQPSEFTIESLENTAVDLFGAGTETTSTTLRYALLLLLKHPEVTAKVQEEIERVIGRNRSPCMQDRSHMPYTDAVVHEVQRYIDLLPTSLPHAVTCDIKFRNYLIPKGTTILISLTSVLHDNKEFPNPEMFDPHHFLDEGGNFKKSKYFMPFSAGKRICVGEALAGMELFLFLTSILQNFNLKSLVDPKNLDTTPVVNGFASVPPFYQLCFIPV

Compound: Cc1cc(N2CCN(S(=O)(=O)c3ccc(C)c(C)c3)CC2)c2ccccc2n1
- EC50 [1]: > 120 µM (not active)
- EC50 [2]: 50 µM (active)
- EC50 [3]: > 120 µM (not active)

Compound: O=C(NCSc1ccccc1)c1ccccc1
- IC50 [4]: > 66 µM (inactive)
- IC50 [5]: > 66 µM (inactive)

Compound: COC(=O)CNC(=O)C1Nc2ccc(OC(F)(F)F)cc2C2C=CCC12 (stereo not given)
- EC50 [6]: > 300 µM (not active)
- EC50 [7]: > 300 µM (not active)

Compound: Cc1cccc(NC(=O)NCCN2CCCCC2)c1
- IC50 (Protein skinhead-1): > 100 µM (inactive)

Compound: CC(=O)Nc1ccc(S(=O)(=O)Nc2nnc(CC(C)(C)C)s2)cc1
- IC50 [4]: > 66 µM (inactive)
- IC50 [5]: > 66 µM (inactive)

Compound: Cc1n[nH]c(O)c1N=Nc1ccc(S(N)(=O)=O)cc1
- EC50 [6]: 78.9 µM (active)
- EC50 [7]: 9.43 µM (inconclusive)

Compound: CC1(C)Cc2c(cnn2-c2cccc(F)c2)C(NC(=O)CSc2ccccn2)C1 (stereo not given)
- EC50 [6]: > 300 µM (not active)
- EC50 [7]: > 150 µM (not active)

Compound: Cc1onc(-c2ccccc2Cl)c1C(=O)NCCn1ccc2ccccc21
- IC50 (Protein skinhead-1): > 100 µM (inactive)

Compound: O=C(Nc1ccc(Cl)cn1)c1cc2c(s1)-c1ccccc1OC2
- IC50 (Protein skinhead-1): > 100 µM (inactive)

Compound: Cc1ccc(-c2csc(NC(CO)c3nc4ccccc4n3CCOCCO)n2)cc1 (stereo not given)
- EC50 [8]: > 120 µM (not active)
- EC50 [9]: > 120 µM (not active)
- EC50 (H4): 17.3 µM (active)

Compound: CCc1ccc(Nc2ncccc2C#N)cc1
- AC50 (Cytochrome P450 2D6): 20 µM (inconclusive)
- AC50 (Cytochrome P450 3A4): 28.2 µM (inconclusive)

Compound: COCCNC(=O)C1Nc2ccc(C(F)(F)F)cc2C2C=CCC12 (stereo not given)
- EC50 [6]: > 300 µM (not active)
- EC50 [7]: > 300 µM (not active)

Compound: S=C(Nc1ccc2nc(-c3ccccn3)c(-c3ccccn3)nc2c1)N1CCOCC1
- IC50 [4]: > 66 µM (inactive)
- IC50 [5]: 40.3 µM (inactive)

Compound: CCCCn1c(SCC(=O)N2c3ccccc3CCc3ccccc32)nc2c1c(=O)n(C)c(=O)n2C
- EC50 [1]: > 120 µM (not active)
- EC50 [2]: 14.2 µM (active)
- EC50 [3]: 15 µM (active)

Compound: O=C(c1csnn1)N1CCC2(CC1)CCN(c1ccccc1)CC2
- AC50 (Cytochrome P450 2D6): 7.94 µM (inconclusive)
- AC50 (Cytochrome P450 1A2): 15.8 µM (inconclusive)

Compound: CSc1ccc(-c2cc(=O)c3ccccc3o2)cc1
- CC50 [10]: 18.7 µM (active)
- IC50 (Protein skinhead-1): 23.9 µM (active)

Compound: Sc1nnc(Cc2sc(-c3ccccc3)nc2-c2ccccc2)o1
- EC50 [1]: 18.9 µM (active)
- EC50 [2]: > 120 µM (not active)
- EC50 [3]: > 120 µM (not active)

Compound: O=C(CSc1ncnc2scc(-c3ccc(Cl)cc3)c12)NCc1ccc2c(c1)OCO2
- IC50 (Protein skinhead-1): > 100 µM (inactive)

Compound: COc1ncnc2c1N=C1CC(C)(C)CC(NCCC(=O)O)=C1S2
- EC50 [6]: > 300 µM (not active)
- EC50 [7]: 13.8 µM (active)

Compound: CC(C)OC(=O)c1nn2c(C(F)(F)F)cc(-c3ccc(Br)o3)nc2c1Br
- EC50 [6]: > 300 µM (not active)
- EC50 [7]: > 300 µM (not active)

Compound: O=C(Nc1ccc(Cl)cn1)c1ccccc1F
- IC50 (Protein skinhead-1): 16.3 µM (active)

Compound: FC(F)(F)c1cc(CN2CCC3(CCNCC3)CC2)cc(C(F)(F)F)c1
- AC50 (Cytochrome P450 2D6): 25.1 µM (inconclusive)
- AC50 (Cytochrome P450 3A4): 31.6 µM (inconclusive)

Compound: COc1ccc(NC(=O)Nc2sc(NS(=O)(=O)c3ccccc3)nc2C)cc1
- IC50 [4]: > 66 µM (inactive)
- IC50 [5]: > 66 µM (inactive)

Compound: N=c1nc(SCCC(=O)O)ss1
- EC50 [1]: 13.4 µM (active)
- EC50 [2]: 15.8 µM (active)
- EC50 [3]: 14 µM (active)

Compound: FC(F)(F)c1cc(Oc2ccccc2Cl)nc(-c2ccccn2)n1
- EC50 [1]: 7.86 µM (active)
- EC50 [2]: > 120 µM (not active)
- EC50 [3]: 6.37 µM (active)

Compound: Cc1cccc(N=Nc2c(O)[nH]c3ccc(Br)cc23)c1
- EC50 [6]: 68.3 µM (active)
- EC50 [7]: 26.9 µM (inconclusive)

Compound: O=C(NCCc1ccccn1)c1ccc(S(=O)(=O)N2CCCCCC2)cc1
- IC50 (Protein skinhead-1): > 100 µM (inactive)

Compound: CC(=O)c1cccc(NC(=S)NC(=O)c2ccccc2Br)c1
- IC50 [4]: > 66 µM (inactive)
- IC50 [5]: > 66 µM (inactive)

Compound: CCc1c(O)nc(SCc2nc(O)c3ccccc3n2)nc1O
- IC50 [4]: > 66 µM (inactive)
- IC50 [5]: > 66 µM (inactive)

Compound: Cc1ccc(Nc2ccc([N+](=O)[O-])ccc2=O)cc1
- EC50 [6]: > 300 µM (not active)
- EC50 [7]: > 300 µM (not active)

Compound: Brc1ccc(-c2nnc(-c3cccnc3)o2)cc1
- IC50 (Protein skinhead-1): 25.1 µM (active)

Compound: Cc1ccc2nc(-c3cccnc3)c(NC3CCCCC3)n2c1
- IC50 [4]: 41.4 µM (inactive)
- IC50 [5]: 34.7 µM (inactive)

Compound: CCC(=O)/C=C1/Sc2ccc(OC)cc2N1CCO
- IC50 [4]: > 66 µM (inactive)
- IC50 [5]: > 66 µM (inactive)

Compound: O=C(NCc1ccc(Cl)cc1)c1ccc(-c2ccc(F)c(F)c2)c2ccoc12
- IC50 (Protein skinhead-1): > 100 µM (inactive)

Compound: FC(F)(F)C(F)(F)C(F)(F)c1nc2nc(Cl)c(Cl)[nH]c-2n1
- IC50 [4]: > 66 µM (inactive)
- IC50 [5]: > 66 µM (inactive)

Compound: N#CC(=Cc1cccs1)c1nc(-c2ccc(Cl)cc2)cs1
- IC50 (Protein skinhead-1): > 100 µM (inactive)

Compound: Cc1ccc(-n2cnc3c(sc4nccc(N(C)C)c43)c2=O)cc1
- EC50 [8]: > 120 µM (not active)
- EC50 [9]: 75.7 µM (active)
- EC50 (H4): 15.6 µM (active)

Compound: Cc1nnc(O)nc1N/N=C/c1ccc(O)c([N+](=O)[O-])c1
- EC50 [6]: 169 µM (active)
- EC50 [7]: 65.5 µM (active)

Compound: C/C(=N/OC(=O)c1cccc(Cl)c1)c1nccs1
- AC50 (Cytochrome P450 2C19): 20 µM (inconclusive)
- AC50 (Cytochrome P450 2D6): 35.5 µM (inconclusive)
- AC50 (Cytochrome P450 1A2): 31.6 µM (inconclusive)

Compound: COC1=C(OC)C(=O)c2ccccc2C1=O
- AC50 (Cytochrome P450 2C19): 31.6 µM (inconclusive)
- AC50 (Cytochrome P450 2D6): 39.8 µM (inconclusive)
- AC50 (Cytochrome P450 2C9): 39.8 µM (inconclusive)
